Measurements: ChEMBL document CHEMBL4152183, “Anti-inflammatory effects of flavonoids in neurodegenerative disorders” (Eur J Med Chem, 2018)

Tested on: BV-2
Assay: Antiinflammatory activity in mouse BV2 cells assessed as inhibition of LPS-induced nitric oxide production pretreated for 1 hr followed by LPS addition and measured after 24 hrs by Griess assay
Assay type: functional, cell-based

IC50 | Compound
13.5 µM | O=c1c(O)c(-c2ccc(O)c(O)c2)oc2cc(O)ccc12 [FISETIN]
10.9 µM | O=C(/C=C/c1ccc(O)c(O)c1)c1ccc(O)cc1O [BUTEIN]
